Laboratory results published in ChEMBL document CHEMBL5357016, “Discovery of Novel PDEδ Autophagic Degraders: A Case Study of Autophagy-Tethering Compound (ATTEC)” (ACS Med Chem Lett, 2024).
Activity calls are given as the source filed them. The rule behind the calls is not given here.

What was measured:
MIA PaCa-2 [1] = assay: Antiproliferative activity against human MIA PaCa-2 cells harboring KRAS mutant assessed as reduction in cell proliferation incubated for 72 hrs by CCK-8 assay; settings: MIA PaCa-2, 72 h
CAPAN-1 = assay: Antiproliferative activity against human CAPAN-1 cells harboring KRAS mutant assessed as reduction in cell proliferation incubated for 72 hrs by CCK-8 assay; settings: CAPAN-1, 72 h
MIA PaCa-2 [2] = assay: Induction of apoptosis in human MIA PaCa-2 cells harboring KRAS mutant assessed as early apoptotic cells at 1 uM measured after 24 hrs by Annexin V-FITC/PI staining based flow cytometric analysis (Rvb= 4.62%); assay type: functional
MIA PaCa-2 [3] = assay: Induction of apoptosis in human MIA PaCa-2 cells harboring KRAS mutant assessed as late apoptotic cells at 1 uM measured after 24 hrs by Annexin V-FITC/PI staining based flow cytometric analysis (Rvb= 10.56%); assay type: functional
MIA PaCa-2 [4] = assay: Induction of apoptosis in human MIA PaCa-2 cells harboring KRAS mutant assessed as necrotic cells at 1 uM measured after 24 hrs by Annexin V-FITC/PI staining based flow cytometric analysis (Rvb= 0.3%); assay type: functional
MIA PaCa-2 [5] = assay: Induction of apoptosis in human MIA PaCa-2 cells harboring KRAS mutant assessed as early apoptotic cells at 10 uM measured after 24 hrs by Annexin V-FITC/PI staining based flow cytometric analysis (Rvb= 4.62%); assay type: functional
MIA PaCa-2 [6] = assay: Induction of apoptosis in human MIA PaCa-2 cells harboring KRAS mutant assessed as late apoptotic cells at 10 uM measured after 24 hrs by Annexin V-FITC/PI staining based flow cytometric analysis (Rvb= 10.56%); assay type: functional
MIA PaCa-2 [7] = assay: Induction of apoptosis in human MIA PaCa-2 cells harboring KRAS mutant assessed as necrotic cells at 10 uM measured after 24 hrs by Annexin V-FITC/PI staining based flow cytometric analysis (Rvb= 0.3%); assay type: functional
MIA PaCa-2 [8] = assay: Effect on PDEdelta mRNA expression in human MIA PaCa-2 cells measured after 24 hrs by RT-qPCR analysis; assay type: functional, cell-based
[9] = Drug localization in lysosome of human HeLa cells assessed as green fluorescence pretreated with compound for 2 hrs followed by probe administration and measured after 1.5 hrs by fluorescence imaging analysis; assay type: ADME, subcellular; settings: 3.5 h
[10] = Drug uptake in lysosome of human HeLa cells assessed as drug fusion by measuring red fluorescence pretreated with compound for 2 hrs followed by probe administration and measured after 1.5 hrs by fluorescence imaging analysis; assay type: ADME, subcellular; settings: 3.5 h

IC50 (MIA PaCa-2 [1]) [nM] | Drug uptake [9] | Drug uptake [10] | Compound | IC50 (CAPAN-1) [nM] | Activity (MIA PaCa-2 [2]) [%] | Activity (MIA PaCa-2 [3]) [%] | Activity (MIA PaCa-2 [4]) [%] | Activity (MIA PaCa-2 [5]) [%] | Activity (MIA PaCa-2 [6]) [%] | Activity (MIA PaCa-2 [7]) [%] | Activity (MIA PaCa-2 [8])
1400 | – | – | Cc1ccc(-n2nc3c(=O)n(CCCC(=O)NCCCCCCNC(=O)COc4c(Br)cc(/C=C5\C(=O)Nc6ccc(I)cc65)cc4Br)nc(C)c3c2C)cc1 | 800 | 3.8 | 18.43 | 0.43 | 9.76 | 23.49 | 11.64 | inactive
25000 | – | – | Cc1ccc(-n2nc3c(=O)n(CCCC(=O)NCCOCCOCCNC(=O)COc4c(Br)cc(/C=C5\C(=O)Nc6ccc(I)cc65)cc4Br)nc(C)c3c2C)cc1 | 3500 | – | – | – | – | – | – | –
– | Active | Active | O=C(COc1c(Br)cc(/C=C2\C(=O)Nc3ccc(I)cc32)cc1Br)NCCCOCCOCCOCCCNC(=S)Nc1ccc2c(c1)C(=O)OC21c2ccc(O)cc2Oc2cc(O)ccc21 | – | – | – | – | – | – | – | –
